One may read the residual activity as the signal under treatment as a percentage of the control signal.

Data set [1] concerns the target T1, Solute carrier organic anion transporter family member 1B1 (Homo sapiens, UniProt Q9Y6L6).
T1 sequence (Q9Y6L6 whole entry): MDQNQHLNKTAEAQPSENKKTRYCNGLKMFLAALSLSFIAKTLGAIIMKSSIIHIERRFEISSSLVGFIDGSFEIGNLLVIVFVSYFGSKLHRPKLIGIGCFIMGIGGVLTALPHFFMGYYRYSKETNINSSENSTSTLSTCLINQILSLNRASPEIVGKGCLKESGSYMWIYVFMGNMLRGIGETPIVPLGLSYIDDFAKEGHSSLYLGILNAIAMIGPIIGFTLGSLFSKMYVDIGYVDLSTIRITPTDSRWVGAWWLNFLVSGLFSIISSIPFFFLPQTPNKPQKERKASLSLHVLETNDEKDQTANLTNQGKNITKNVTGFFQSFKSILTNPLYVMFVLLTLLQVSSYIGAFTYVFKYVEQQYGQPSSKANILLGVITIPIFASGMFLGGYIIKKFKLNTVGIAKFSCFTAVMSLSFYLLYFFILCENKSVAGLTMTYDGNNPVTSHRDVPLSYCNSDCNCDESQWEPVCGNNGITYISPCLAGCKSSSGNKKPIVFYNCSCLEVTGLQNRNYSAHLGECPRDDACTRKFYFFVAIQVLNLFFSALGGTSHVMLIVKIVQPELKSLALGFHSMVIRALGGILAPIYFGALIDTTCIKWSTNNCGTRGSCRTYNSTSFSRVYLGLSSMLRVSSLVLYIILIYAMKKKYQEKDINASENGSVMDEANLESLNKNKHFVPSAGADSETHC
The note with it: chinese hamster, cho, 10 µM.

Data set [2] addresses T2, Solute carrier organic anion transporter family member 1B3 (Homo sapiens, UniProt Q9NPD5).
T2 sequence (Q9NPD5 whole entry): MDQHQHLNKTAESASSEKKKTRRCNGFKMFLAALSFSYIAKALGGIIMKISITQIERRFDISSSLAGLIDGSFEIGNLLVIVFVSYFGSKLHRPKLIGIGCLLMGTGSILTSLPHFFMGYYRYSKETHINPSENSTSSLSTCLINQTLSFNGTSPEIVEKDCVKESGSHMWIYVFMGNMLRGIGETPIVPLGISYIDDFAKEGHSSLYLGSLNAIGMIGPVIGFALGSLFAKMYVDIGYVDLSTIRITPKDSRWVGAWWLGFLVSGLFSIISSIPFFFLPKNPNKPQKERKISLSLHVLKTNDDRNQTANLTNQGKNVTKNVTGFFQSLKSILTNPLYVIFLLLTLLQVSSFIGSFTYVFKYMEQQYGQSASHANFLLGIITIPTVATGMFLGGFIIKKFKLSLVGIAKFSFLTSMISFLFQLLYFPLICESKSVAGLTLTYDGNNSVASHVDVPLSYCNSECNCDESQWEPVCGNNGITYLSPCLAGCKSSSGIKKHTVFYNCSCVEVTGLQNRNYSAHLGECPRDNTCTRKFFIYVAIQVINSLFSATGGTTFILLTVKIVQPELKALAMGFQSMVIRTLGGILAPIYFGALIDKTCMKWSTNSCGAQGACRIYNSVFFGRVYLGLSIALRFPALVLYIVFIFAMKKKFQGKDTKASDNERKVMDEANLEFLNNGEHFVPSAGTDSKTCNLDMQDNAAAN
The note with it: chinese hamster, cho, 10 µM.

Structures are written as SMILES.

As for `COC(=O)C[C@H]1C(C)(C)[C@H](O)[C@@H]2CC3=C4CC(O)O[C@@H](c5ccoc5)[C@@]4(C)CCC3[C@]1(C)C2=O` (stereo partly drawn) [3,16-DIDEOXYMEXICANOLIDE-3alpha-DIOL], the figures for the residual activity in data set [1] and in data set [2] were 67.63% and 96.33%, respectively.
In the same order, the values of `COC(=O)C[C@H]1C(C)(C)[C@@H](O)[C@@H]2CC3=C4CC(O)O[C@@H](c5ccoc5)[C@]4(C)CCC3[C@@]1(C)C2=O` (stereo partly drawn) [3,16-DIDEOXYMEXICANOLIDE-3beta-DIOL] are 51.44% and 53.76%.
In the same order, the values of `C=C1C(N)CC2CC1C2(C)C` (stereo not drawn) [3-AMINO-beta-PINENE] are 92.27% and 104.4%.
Taken in the same sequence, the figures for `NC(=O)c1cccc(N)c1` [3-AMINOBENZAMIDE] were 106.1% and 110.7%.
Consider `CC(=O)O[C@H]1C[C@@H](O)C(C)(C)[C@@H]2C[C@@H](OC(C)=O)[C@]3(C)[C@H](CC[C@@]4(C)[C@@H](c5ccoc5)OC(=O)[C@H]5O[C@@]534)[C@@]12C` [3-DEACETYLKHIVORIN], for which the residual activity is 94.07% in data set [1] and 88.69% in data set [2].
Taken in the same sequence, the figures for `COC(=O)C[C@H]1C(C)(C)[C@@H](O)[C@@H]2CC3=C4C=C(OC)O[C@@H](c5ccoc5)[C@]4(C)CCC3[C@@]1(C)C2=O` (stereo partly drawn) [3-DEOXO-3beta-HYDROXYMEXICANOLIDE 16-ENOL ETHER] were 27.18% and 106.5%.
For the molecule `C=C1[C@H]2CC[C@@]3(C)[C@H](c4ccoc4)OC(=O)C[C@]13O[C@H]1C[C@H](O)C(C)(C)[C@H](CC(=O)OC)[C@]12C` [3-DEOXY-3beta-HYDROXYANGOLENSIC ACID METHYL ESTER], the residual activity in data set [1] is 50.95%; in data set [2] it was 59.13%.
In the same order, the values of `COc1ccc2c(c1)OC[C@@H](Cc1ccc(OC)c(OC)c1)[C@@H]2O` [3-DESHYDROXYSAPPANOL TRIMETHYL ETHER] are 100.6% and 104.1%.
In the same order, the values of `COc1ccc(-c2oc3ccccc3c(=O)c2O)cc1OC` [3-HYDROXY-3',4'-DIMETHOXYFLAVONE] are 119.6% and 106.3%.
For the molecule `O=c1oc2ccccc2cc1O` [3-HYDROXYCOUMARIN], the residual activity turned out to be 126.8% in data set [1] and 116.7% in data set [2].
As for `COc1cccc(O)c1O` [3-METHOXYCATECHOL], the residual activity in data set [1] was found to be 98.75%; in data set [2] it was 107.5%.
Taken in the same sequence, the figures for `Cc1ccc2cc3c(ccc4ccccc43)c3c2c1CC3` [3-METHYLCHOLANTHRENE] were 86.73% and 78.58%.
Taken in the same sequence, the figures for `Cc1cc(O)c(C)c(O)c1C(=O)O` [3-METHYLORSELLINIC ACID] were 116.2% and 114.8%.
Consider `Cn1c(=O)[nH]c(=O)c2[nH]cnc21` [3-METHYLXANTHINE], for which the residual activity in data set [1] was found to be 101.5%; in data set [2], 95.53%.
Taken in the same sequence, the figures for `CC1(C)CC23C(=O)CCC(O)C2(C)CCC13` (stereo unspecified) [3-NOR-3-OXOPANASINSAN-6-OL] were 100.8% and 112.2%.
For `C[C@@H]1CC[C@@]23CCC4(C)[C@@](C=CC5[C@@]6(C)CCC(=O)C(C)(C)C6CC[C@]54C)(OC2=O)C3[C@H]1C` (stereo partly specified) [3-OXOURSAN (28-13)OLIDE], the residual activity is recorded as 105.6% in data set [1] and 96.4% in data set [2].
In the same order, the values of `CC1/C(=N/O)C[C@@H]2C[C@H]1C2(C)C` (stereo partly specified) [3-PINANONE OXIME] are 95.73% and 123%.
In the same order, the values of `CC(=O)c1ccc(O)c(CC=C(C)C)c1` [3-PRENYL-4-HYDROXYACETOPHENONE] are 93.69% and 99.32%.
In the case of `C[C@]12CC[C@@H](O)C[C@H]1CCc1ccccc12` [3alpha-HYDROXY-4,4-BISNOR-8,11,13-PODOCARPATRIENE], the residual activity in data set [1] is 77.88%; in data set [2], 100.9%.
In the same order, the values of `CC(=O)O[C@H]1CC[C@]2(C)C(C[C@H](OC(C)=O)[C@]3(C)C4=CC(=O)OC(c5ccoc5)[C@@]4(C)CCC23)C1(C)C` (stereo partly drawn) [3beta,7beta-DIACETOXYDEOXODEACETOXYDEOXYDIHYDROGEDUNIN] are 51.92% and 67.84%.
Taken in the same sequence, the figures for `CC(=O)O[C@H]1CC[C@]2(C)C3=CC(=O)[C@@]4(C)C(C[C@@H]5OC6(OCC(C)CC6Br)[C@@H](C)[C@@H]54)C3CC[C@H]2C1` (stereo partly drawn) [3beta-ACETOXY-23-BROMO-ISOALLOSPIROST-9 (11)-ENE-12-ONE] were 102.6% and 96.22%.
Taken in the same sequence, the figures for `COc1cc([C@@H]2c3cc4c(cc3[C@@H](O)[C@H]3COC(=O)[C@H]23)OCO4)cc(OC)c1O` [4'-DEMETHYLEPIPODOPHYLLOTOXIN] were 42.52% and 69.62%.
Consider `O=C(/C=C/c1ccccc1)c1ccc(O)cc1` [4'-HYDROXYCHALCONE], for which the residual activity in data set [1] worked out at 132.2%; in data set [2] it was 130.5%.
In the same order, the values of `COc1ccc(C(=O)/C=C/c2ccccc2)cc1` [4'-METHOXYCHALCONE] are 100.4% and 93.51%.
In the same order, the values of `C=CC(C1=CC(=O)C(OC)=CC1=O)c1ccc(OC)cc1` (stereo unspecified) [4,4'-DIMETHOXYDALBERGIONE] are 116.4% and 101.4%.
In the same order, the values of `COc1ccc(-c2cc(=O)c3ccc(OC)cc3o2)cc1` [4,7-DIMETHOXYFLAVONE] are 91.89% and 87.07%.
As to `CC(=O)Oc1ccc(O)cc1` [4-ACETOXYPHENOL], the residual activity in data set [1] was determined as 136.7%; in data set [2] it was 116.4%.
As to `NCC(CC(=O)O)c1ccc(Cl)s1` (stereo unspecified) [4-AMINO-3- (5-CHLOROTHIEN-2-YL)BUTANOIC ACID], the residual activity in data set [1] turned out to be 116.9%; in data set [2] it was 99.7%.
Consider `Cl.NCCc1ccc(S(=O)(=O)F)cc1` [4-AMINOETHYLBENZENESULFONYL FLUORIDE HYDROCHLORIDE], for which the residual activity in data set [1] stood at 71.73%; in data set [2], 100%.
In the same order, the values of `C=CC(C1=CC(=O)C(OC)=CC1=O)c1ccccc1` (stereo unspecified) [4-METHOXYDALBERGIONE] are 77.75% and 139.3%.
On to `Cc1cc(=O)oc2c(O)c(O)ccc12` [4-METHYLDAPHNETIN], for which the residual activity worked out at 61.23% in data set [1] and 78.2% in data set [2].
For the molecule `Cc1cc(=O)oc2cc(O)c(O)cc12` [4-METHYLESCULETIN], the residual activity in data set [1] came to 121.7%; in data set [2] it was 110.1%.
In the same order, the values of `CCCCCCCCCc1ccc(O)cc1` [4-NONYLPHENOL] are 140.8% and 184.2%.
Turning to `Cc1cc(=O)oc2cc(O)cc(O)c12` [5,7-DIHYDROXY-4-METHYLCOUMARIN], the residual activity in data set [1] is recorded as 79.94%; in data set [2] it was 106.7%.
Taken in the same sequence, the figures for `O=c1c(-c2ccccc2)coc2cc(O)cc(O)c12` [5,7-DIHYDROXYISOFLAVONE] were 54.1% and 75.57%.
In the same order, the values of `COc1cc(OC)c2c(=O)c(-c3ccccc3)coc2c1` [5,7-DIMETHOXYISOFLAVONE] are 99.46% and 104.7%.
Regarding `Cl.NCCCCC(=O)O` [5-AMINOPENTANOIC ACID HYDROCHLORIDE], the results for the residual activity in data set [1] and in data set [2] were 59.53% and 62.53%, respectively.
With `O=C(O)c1cc2cc(Cl)ccc2[nH]1` [5-CHLOROINDOLE-2-CARBOXYLIC ACID], the residual activity came to 75.02% in data set [1] and 91.36% in data set [2].

These data come from ChEMBL document CHEMBL3039007, “Structure-based identification of OATP1B1/3 inhibitors” (Mol Pharmacol, 2013).
